The values that follow come from ChEMBL document CHEMBL1201862, “PubChem BioAssay data set” (2004).

Experiment [1] has as its target T1, Corticotropin-releasing factor receptor 2/Corticotropin-releasing factor-binding protein (Homo sapiens, UniProt P24387+Q13324).
T1 sequence (Q13324 whole entry): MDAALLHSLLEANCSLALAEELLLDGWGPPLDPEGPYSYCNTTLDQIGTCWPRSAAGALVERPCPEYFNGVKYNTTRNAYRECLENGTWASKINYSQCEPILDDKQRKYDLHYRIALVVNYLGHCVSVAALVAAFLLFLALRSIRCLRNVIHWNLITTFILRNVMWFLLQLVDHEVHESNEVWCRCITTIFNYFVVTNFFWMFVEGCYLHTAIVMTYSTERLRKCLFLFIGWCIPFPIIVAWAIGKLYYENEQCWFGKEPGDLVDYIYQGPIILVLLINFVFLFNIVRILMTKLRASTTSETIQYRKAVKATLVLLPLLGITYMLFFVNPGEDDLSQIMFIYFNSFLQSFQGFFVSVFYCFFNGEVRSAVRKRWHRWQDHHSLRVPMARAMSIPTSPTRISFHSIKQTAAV
T1 sequence (P24387 whole entry): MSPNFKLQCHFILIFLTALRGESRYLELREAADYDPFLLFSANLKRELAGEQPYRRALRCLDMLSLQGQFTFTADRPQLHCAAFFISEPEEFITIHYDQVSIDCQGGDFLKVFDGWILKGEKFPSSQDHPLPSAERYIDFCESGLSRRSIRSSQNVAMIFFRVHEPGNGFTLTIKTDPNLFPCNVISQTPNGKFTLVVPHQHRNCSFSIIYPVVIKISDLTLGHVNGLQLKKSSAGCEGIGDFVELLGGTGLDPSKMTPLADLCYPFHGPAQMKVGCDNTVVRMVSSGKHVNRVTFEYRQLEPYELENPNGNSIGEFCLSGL
The experiment can be described thus: activators of CRF receptor 2 with binding protein – uHTS hits, confirmation (AID 602473). It is filed as functional. To be noted: read-out: EC50_Mean.

Experiment [2] has as its target T1, Corticotropin-releasing factor receptor 2/Corticotropin-releasing factor-binding protein. The experiment can be described thus: Dose Response confirmation of uHTS hits for small molecule antagonists of the CRF-binding protein and CRF-R2 receptor complex. The experiment is classed as functional. To be noted: read-out: IC50_Mean.
For another experiment, the system named is H4. Nature of the experiment: Luminescence Cell-Based Dose Response HTS to Identify Activators of 5'UTR Stem-Loop Driven Prion Protein mRNA Translation in H4 Neuroglioblastoma Cells. [Related pubchem assays: 1829 (Project Summary), 1814 (Primary HTS)]. It is filed as functional. To be noted: Homo sapiens.
Experiment [3] in a line: Luminescence Cell-Based Dose Response HTS to Identify Activators of Luciferase Translation or Activity in H4 […] Cells. [Related pubchem assays: 1829 (Project Summary), 1814 (Primary HTS)]. It is filed as functional.
A short description of experiment [4]: Luminescence Cell-Based Dose Confirmation HTS to Identify Activators of 5'UTR Stem-Loop Driven Alpha-Synuclein mRNA Translation in H4 Neuroglioblastoma Cells. [Related pubchem assays: 1829 (Project Summary), 1814 (Primary HTS)]. It is filed as functional.
Experiment [5] can be described thus: viability of PTEN-deleted HCT116 cells – cell-based, HCT116 PTEN knockout, dose response (AID 1047).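 Also: HCT116 colon tumor cells with PTEN knocked out; cells exposed to compound for 60 hours before readout; potency for loss of cell viability measured by luminescence.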 It is filed as functional.
Experiment [6] deals with T2, Rac GTPase-activating protein 1 (Homo sapiens, UniProt Q9H0H5).
T2 sequence (Q9H0H5 whole entry): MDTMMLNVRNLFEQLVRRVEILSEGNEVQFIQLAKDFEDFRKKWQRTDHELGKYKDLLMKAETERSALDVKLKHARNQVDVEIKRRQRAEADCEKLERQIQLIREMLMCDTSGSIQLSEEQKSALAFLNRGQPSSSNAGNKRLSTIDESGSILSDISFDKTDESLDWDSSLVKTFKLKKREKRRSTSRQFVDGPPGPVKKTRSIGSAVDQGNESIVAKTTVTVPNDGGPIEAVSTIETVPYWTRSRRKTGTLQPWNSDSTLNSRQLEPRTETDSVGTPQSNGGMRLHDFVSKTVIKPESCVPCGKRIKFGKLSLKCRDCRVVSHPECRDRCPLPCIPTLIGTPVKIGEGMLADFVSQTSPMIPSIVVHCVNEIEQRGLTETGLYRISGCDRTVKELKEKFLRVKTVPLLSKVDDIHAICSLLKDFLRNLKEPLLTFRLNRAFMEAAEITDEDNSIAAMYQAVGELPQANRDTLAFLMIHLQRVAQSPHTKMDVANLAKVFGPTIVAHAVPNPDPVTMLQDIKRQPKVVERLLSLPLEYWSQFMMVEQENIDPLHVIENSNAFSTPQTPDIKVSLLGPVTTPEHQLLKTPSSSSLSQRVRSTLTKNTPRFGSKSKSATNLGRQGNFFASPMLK
Nature of the experiment: blockers of MgcRacGAP-driven Rac1 GTP hydrolysis – biochemical, ADP Hunter fluorescence, primary and confirmatory, confirmation (AID 624330). The experiment is classed as functional.

Experiment [7] is described as follows: Luminescence Cell-Based Dose Confirmation HTS to Identify Inhibitors of Platelet Dense Granule Release. [Related pubchem assays: 1663 (Primary HTS), 1678 (Summary of Project)]. It is filed as functional.
Experiment [8] deals with Luciferin 4-monooxygenase (Photinus pyralis, UniProt P08659). The experiment can be described thus: inhibition of purified Photinus pyralis luciferase – biochemical, luminescence, dose response (AID 1891).
A short description of experiment [9]: viability of HCT116 lacking mutant beta-catenin – cell-based, human colon tumor, dose response (AID 1045).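 Also: HCT116 colon tumor cells with beta catenin knocked out; cells exposed to compound for 60 hours.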 The experiment is classed as functional.
The test system of experiment [10] is Streptococcus sp. 'group A'. Nature of the experiment: Streptococcus pyogenes SK(-)GAS viability under kanamycin – luminescence, BacTiterGlo, confirmation, counter-screen for streptokinase expression inhibitor project, dose response (AID 1900). It is filed as functional, organism-based. In general terms: The purpose of a counterscreen is to sort out artefacts and off-target activity.

The test system of a further experiment is Streptococcus. The experiment can be described thus: GAS UMAA2166 growth inhibition – luminescence, BacTiterGlo, counter-screen for streptokinase expression inhibitor project, dose response (AID 1915).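 Also: potency for reduction of bacterial viability or growth.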 It is filed as functional, organism-based.
The test system of another experiment is INS1. Nature of the experiment: INS-1E survival protection against cytokine death – cell-based, luminescence, retest, dose response (AID 449756).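 Also: cell death triggered by IL-1 beta plus TNF-alpha plus IFN-gamma mixture; protective hits raise ATP signal compared with cytokine alone wells.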 The experiment is classed as functional. The following applies: Rattus norvegicus.
The nature of experiment [11]: NIH3T3 cell viability loss – ATP luminescence, mouse fibroblasts, counter-screen, dose response (AID 2010).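 Also: cells exposed to compound for about 90 hours before reading.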 It is filed as functional, cell-based.
A short description of experiment [12]: Trypanosoma cruzi growth suppression in host cells – NIH3T3 host cells, beta-gal luminescence, confirmation (AID 2044).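 Also: intracellular parasites grown in NIH/3T3 mouse fibroblasts as host cells; luminescent beta-galactosidase reporter signal from transgenic T. cruzi replicating inside host cells; inhibitors lower the luminescence signal.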 It is filed as functional, cell-based.

Activity calls are given as the source filed them. Rule as the data show it, for most assays here: actives have a measured EC50 and inactives only a lower limit.

Chain of Luciferin 4-monooxygenase (P08659 whole entry): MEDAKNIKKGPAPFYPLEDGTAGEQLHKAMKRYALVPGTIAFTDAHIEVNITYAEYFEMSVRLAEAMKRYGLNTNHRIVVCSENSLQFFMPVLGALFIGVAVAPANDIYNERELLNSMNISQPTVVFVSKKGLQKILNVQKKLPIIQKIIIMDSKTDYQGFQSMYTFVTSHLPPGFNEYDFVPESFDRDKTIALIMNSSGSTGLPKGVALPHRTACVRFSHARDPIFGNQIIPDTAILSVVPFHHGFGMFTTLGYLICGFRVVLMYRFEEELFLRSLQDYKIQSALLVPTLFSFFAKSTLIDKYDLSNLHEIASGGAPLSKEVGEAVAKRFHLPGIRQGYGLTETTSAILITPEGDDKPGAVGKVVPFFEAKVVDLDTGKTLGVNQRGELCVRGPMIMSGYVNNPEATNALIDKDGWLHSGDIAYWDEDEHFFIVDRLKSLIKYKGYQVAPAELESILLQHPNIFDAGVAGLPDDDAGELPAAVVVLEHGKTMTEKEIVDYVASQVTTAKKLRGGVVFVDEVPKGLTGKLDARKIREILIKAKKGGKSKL

In the case of `O=C(Nc1ccccc1SCC1CSc2nc3ccccc3c(=O)n21)c1ccccc1` (stereo not given), the EC50 in experiment [1] is > 53 µM (inactive). In [2], the IC50 is > 47.1 µM (inactive).
For `COc1cccc(C2CCCN2Cc2nc(-c3cnccn3)no2)c1` (stereo not given) the same measures were > 53 µM (inactive) and > 47.1 µM (inactive).
In the case of `NS(=O)(=O)c1cc2c(cc1Cl)NC(C1C[C@H]3C=C[C@@H]1C3)NS2(=O)=O` (stereo not given in full), the EC50 (in the experiment on H4; in experiment [3]; in experiment [4]) was > 120 µM (not active) in each case.
For `O=C(CNS(=O)(=O)c1cccs1)Nc1ccc2c(c1)OCCO2`, the EC50 was 2.85 µM (active) with H4, 7.8 µM (active) in experiment [3] and 11.6 µM (active) in [4].
For the compound `Cc1n[nH]c2c1C(C1CC=CCC1)C(C#N)=C(N)O2` (stereo not given), the EC50 in [5] was 34.7 µM (active).
Take `Cc1cc(C)c(OCC(O)CN2CCN(C(=O)c3ccccc3)CC2)c(C)c1` (stereo not given): in experiment [6], the IC50 was 139 µM (active).
In the case of `COc1cc(CNc2ccccc2SC)ccc1O`, the results for the EC50 in experiment [7], in experiment [1] and in experiment [8] were > 112 µM (not active), > 53 µM (inactive) and > 112 µM (not active), respectively. For the same compound, the IC50 in [2] was > 47.1 µM (inactive).
As for `c1ccc(CSc2nnc(-c3ccco3)n2Cc2ccccc2)cc1`, the EC50 in the experiment with H4 is 7.76 µM (active); in experiment [3], 6.57 µM (active); in experiment [4], 0.166 µM (active).
Regarding `Cc1ccc(CCNC(=O)C2CCC(=O)N2C2CCCC2)cc1` (stereo not given), the EC50 in experiment [1] is > 53 µM (inactive). In addition, in experiment [2], the IC50 is > 47.1 µM (inactive).
`COc1ccc(C2=NN(CN3C(=O)C(=O)c4ccccc43)C(c3ccc(OC)cc3)C2)cc1` (stereo not given): the EC50 was 0.112 µM (active) in the experiment with H4 and 14.6 µM (active) in experiment [4].
As to `O=C1Nc2cc(Cl)c(Cl)cc2N(O)N1c1ccc(Cl)cc1`, the EC50 (with H4; in experiment [3]; in experiment [4]) was > 120 µM (not active) throughout.
On to `CCOC(=O)N1CCC(N2CCN(S(=O)(=O)c3ccc4ccccc4c3)CC2)CC1`, for which the IC50 in experiment [6] was 151 µM (active).
On the same count and under the same terms, with `COc1ccc(N2CC2c2ccncc2)cc1` (stereo not given) the figure was 144 µM (active).
With `COc1ccc2cc(C(=O)N3CCN(C)CC3)[nH]c2c1`, the EC50 is > 120 µM (not active) in the experiment with H4, 9.45 µM (active) in [3] and 13.3 µM (active) in experiment [4].
For the compound `CCc1cc(SC#N)cc(CC)c1NC(=O)CCl`, the values for the EC50 in [5] and in experiment [9] were 8.97 µM (active) and 8.43 µM (active), respectively.
On to `Cc1ccccc1OCC(=O)OCC(=O)c1c[nH]c2ccccc12`, for which the EC50 in experiment [1] was > 53 µM (inactive). Besides, the IC50 in [2] was > 47.1 µM (inactive).
With `COc1ccc(NC2CCCN(C(=O)CN3CCOC3=O)C2)cc1` (stereo not given), the IC50 in experiment [6] is 109 µM (active).
Regarding `ClC(=C\c1ccccc1)/C=N/N1CCN(c2ccccn2)CC1`, the EC50 is 8.35 µM (active) with H4, 36.5 µM (active) in experiment [3] and 0.347 µM (active) in experiment [4].
For `Fc1ccccc1Nc1nc2ccccc2n2nnnc12` the same measures were 62.6 µM (active), 95.3 µM (active) and 26.2 µM (active).
Usually AC50 stands for the concentration giving half of the maximal activity seen. As for `O=C(CNc1ccc(F)cc1)N/N=C/c1c(O)ccc2ccccc12`, the EC50 in experiment [10] is 0.846 µM (active); in the experiment with Streptococcus, 1.67 µM (active). Also, the AC50 in the experiment with INS1 is 2.94 µM (active).
As for `C[n+]1cn(/N=C/c2ccccc2)c2ccccc21`, the values for the EC50 (with H4; in experiment [3]; in experiment [4]) were 57.7 µM (active), > 120 µM (not active) and 17.4 µM (active), respectively.
Consider `NNC(=S)NC1CCS(=O)(=O)C1` (stereo not given), for which the EC50 in experiment [1] is > 53 µM (inactive). Also, the IC50 in experiment [2] is > 47.1 µM (inactive).
With `Cc1csc(NC(=O)c2nc3nccc(C)n3n2)n1`, the EC50 is 37.4 µM (active) in the experiment on H4 and 36.1 µM (active) in experiment [3].
`CCCN(CCC)C(=O)c1cc([N+](=O)[O-])cc2c1-c1ccc([N+](=O)[O-])cc1C2=C(C#N)C#N`: the EC50 in [11] is 10.7 µM (active); in [12] it was 1.62 µM (active). Also, the AC50 with INS1 is 6.7 µM (active).
For `COc1cc(/C=N/NC(=O)C(=O)N2CCCC2)ccc1O`, the IC50 in experiment [6] is 26.7 µM (active).
On to `CCCNC(=O)c1c(NC(=O)C2COc3ccccc3O2)sc2c1CCCC2` (stereo not given), for which the EC50 in [5] was 8.59 µM (active); in [9], 9.98 µM (active).
`COc1cc(CN2CCN(C(=O)CC(C)C)CC2)cc(OC)c1O`: in experiment [6], the IC50 is 78.6 µM (active).
Turning to `C=C[C@H](Cc1ccccc1)N(Cc1ccccc1)S(=O)(=O)N(Cc1ccccc1)[C@H](C=C)Cc1ccccc1`, in the experiment with INS1, the AC50 is 4.47 µM (active).
Regarding `O=S1(=O)CCN(Cc2csc(-c3cccs3)n2)CC1`, the EC50 is 17.9 µM (active) in experiment [7] and > 112 µM (not active) in [8]. Further, the AC50 with INS1 is 145 µM (active).
`C=C(C)CN1C(=O)C(O)(CC(=O)c2ccc3c(c2)OCCO3)c2ccccc21` (stereo not given): the EC50 in experiment [5] was 22.1 µM (active); in [9], 22.7 µM (active).
